# Like-named read-outs stand apart in the source and are kept apart here.
# Key:
# [1] = tested on: patients with Huntington's disease; conditions: Week 52
# Source text: Motor deficits can be objectively assessed using different Q-Motor assessments. All Q-Motor assessments are based on the application of precalibrated and temperature controlled force transducers and 3-dimensional position sensors with very high sensitivity and test-retest reliability across sessions and sites in a multicenter clinical study. Q-Motor measures thus aim to reduce the limited sensitivity of categorical clinical rating scales, the intra- and inter-rater variability, and placebo effects observed in scales such as UHDRS-TMS. In addition, Q-Motor assessments allow for the objective monitoring of unintended motor side-effects in clinical studies. Thus, Q-Motor is an objective, reliable, and sensitive measure of motor function that is free of rater bias and limits placebo effect influence.
# This task assessed the regularity of hand taps performed when alternating between the palm and dorsal surface of the hand performing a repetitive pronation/supination movement. The force and duration of the hand taps are recorded similarly to the speeded tapping task. A tone cues the start and end of an assessment. Five trials of 10 seconds duration are performed with each hand.
# [2] = tested on: human patients afflicted with dystonia; conditions: periodic (daily or twice daily) oral administration
structure (smiles),measurement,setting,value
"CCCN1CCC(c2cccc(S(C)(=O)=O)c2)CC1 [pridopidine, 4-[3-(methylsulfonyl)phenyl]-1-propyl-piperidine]","Wk 52 Δ to placebo, change from baseline in Q-Motor: Pro-Sup-Frequency-MN-Hand","[1]; 45 mg bid, FAS",0.0599 Hz
same,"Wk 52 Δ to placebo, change from baseline in Q-Motor: Pro-Sup-Frequency-MN-Hand","[1]; 45 mg bid, HD1 and HD2 patients",0.1195 Hz
same,"Wk 52 Δ to placebo, change from baseline in Q-Motor: Pro-Sup-Frequency-MN-Hand","[1]; 67.5 mg bid, FAS",−0.0124 Hz
same,"Wk 52 Δ to placebo, change from baseline in Q-Motor: Pro-Sup-Frequency-MN-Hand","[1]; 67.5 mg bid, HD1 and HD2 patients",0.0548 Hz
same,"Wk 52 Δ to placebo, change from baseline in Q-Motor: Pro-Sup-Frequency-MN-Hand","[1]; 90 mg bid, FAS",−0.0087 Hz
same,"Wk 52 Δ to placebo, change from baseline in Q-Motor: Pro-Sup-Frequency-MN-Hand","[1]; 90 mg bid, HD1 and HD2 patients",0.0575 Hz
same,"Wk 52 Δ to placebo, change from baseline in Q-Motor: Pro-Sup-Frequency-MN-Hand","[1]; 112.5 mg bid, FAS",0.0127 Hz
same,"Wk 52 Δ to placebo, change from baseline in Q-Motor: Pro-Sup-Frequency-MN-Hand","[1]; 112.5 mg bid, HD1 and HD2 patients",0.08 Hz
same,dystonia in afflicted patients,[2],effective to reduce dystonia
